Test results published in US11737462B2, “Methods for modulating plant response to environmentally-induced stress” (Howard University, priority 2012, dated 2023).

How the values were obtained:
[1] = system: homodimerized RACK1A maintaining yeast cells (AA); assay: UV-B induced cell death in homodimerized RACK1A maintaining yeast cells (AA); assay type: cell-based; conditions: 60 μM overnight, Live/dead staining, vs DMSO-only control
Method: (§1) In this experiment, yeast cells were irradiated with UV-B light to analyze the effect of SD-29 analogs on UV-B induced cell death. The yeast cells were developed to assay for RACK1A homodimerization assays using split-ubiquitin technique. In this assay, homodimerized RACK1A maintaining yeast cells (AA) were grown overnight in the presence of 60 μM of the indicated compounds. Yeast cells treated overnight with SD-29-7, SD-29-9, and SD-29-11 with and without exposure to UV-B were compared to a DMSO-only control. The cells were stained with Invitrogen's Live/dead cell assay system where dead cells appeared as intensely fluorescent with brightness under a fluorescent microscope.
(§2) In this experiment, yeast was treated with UV-B to analyze the effect of SD-29-12 on UV-B induced cell death. Two groups of yeast were used. One was the yeast used in Example 6 (“AA”) and the other (“YY”) is a Y248F mutant. The AA cells can homodimerize but YY cells cannot.
(§3) The yeast was treated overnight with SD-29-12 and then followed the same protocol as described in Example 6.

[2] = molecular target: RACK1A (Arabidopsis thaliana, UniProt O24456); assay: in-vitro assay of tyrosine phosphorylation (Y248) based homodimerization of RACK1A; assay type: biochemical; conditions: in-vitro assay
Sequence of RACK1A (O24456 whole entry): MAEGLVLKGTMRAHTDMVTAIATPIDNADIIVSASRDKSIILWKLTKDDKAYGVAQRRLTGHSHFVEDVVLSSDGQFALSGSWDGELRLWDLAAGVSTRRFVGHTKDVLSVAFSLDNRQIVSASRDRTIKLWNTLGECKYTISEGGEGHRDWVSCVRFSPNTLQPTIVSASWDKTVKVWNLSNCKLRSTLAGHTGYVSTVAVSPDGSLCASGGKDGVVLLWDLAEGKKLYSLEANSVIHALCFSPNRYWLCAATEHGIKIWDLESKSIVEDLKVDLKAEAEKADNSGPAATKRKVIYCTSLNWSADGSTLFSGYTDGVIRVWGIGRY
Source text: A crystal structure of Arabidopsis thaliana RACK1 protein has been reported. Deducing the crystal structure of the Arabidopsis RACK1A protein highlighted the potential functional residues of the protein. Noteworthy in the structure was the functionally conserved tyrosine phosphorylation residue (Y248) that has been implicated in RACK1A function. Therefore, it was undertaken to identify a chemical inhibitor of Y248 phosphorylation that would serve as a potential “anti-stress” compound in countering environmental stresses in plants. In order to identify small compounds occupying the Y248 pocket, docking simulations with a subset of 30,000 compounds were performed. Based on ranking with an energy cut-off of 25 kcal/mol, 3,011 compounds were then selected. Upon further re-ranking, 46 lead compounds were identified and 11 compounds were screened for their efficacy in an in-vitro assay. […] Those six compounds include SD-29, SD-29-9, SD-29-11, SD-29-22, SD-34, and SD-125.

[3] = system: Y248F mutant yeast (YY); assay: UV-B induced cell death in Y248F mutant yeast (YY); assay type: cell-based; conditions: treated overnight, Live/dead staining
Method: as §1, §2, §3

[4] = system: plant; assay: salt sensitivity when applied to a plant; conditions: in vivo
[5] = system: Arabidopsis plants; assay: high temperature stress (42° C.) in Arabidopsis plants; assay type: in vivo, Arabidopsis thaliana
[6] = molecular target: T1, Arabidopsis RACK1A (Arabidopsis thaliana, UniProt O24456); assay: western blot of RACK1A tyrosine phosphorylation in Arabidopsis leaves under heat stress; assay type: in vivo; conditions: 42° C. for three hours, western blot, antibody to phosphorylated Y248
T1 construct: from tissue; host or cells: Arabidopsis plant leaves
T1 sequence (O24456 whole entry): as above
Method: In the examples described herein, the test compounds (e.g., SD-29 or analogs thereof) were dissolved in dimethyl sulfoxide (DMSO) to provide a 20 mM concentration. Micromolar concentrations were then prepared as needed by addition to the water incubation media. Unless stated otherwise, the experimental plants were incubated with the roots immersed in the water containing the compound. The control plants received only DMSO in the same amount as that of the compound. In the second group (FIG. 3), Arabidopsis plants were held at 42° C. for six hours and compared to control plants held at about 22° C. The Arabidopsis plant in the experimental group was treated with 60 μM SD-29 in water. A control plant received water and DMSO. Lysates were then prepared from the leaves and western blots were performed using immobilized mouse anti-pTRY and Arabidopsis-anti RAC[…]. […] A similar experiment was carried out using analog SD-29-9 and SD-29 at 42° C. for three hours. […] A western blot was then performed using an antibody that was raised targeting phosphorylated […] residue of RAC[…].

Row | Compound | UV-B induced cell death in yeast cells (AA) [1] | tyrosine phosphorylation (Y248) based homodimerization of RACK1A proteins [2] | other results
1 | COc1cc(-c2nnc(SCC(=O)Nc3ccc(Oc4ccccc4)cc3)n2N)cc(OC)c1OC [SD-29-11] | effective to protect yeast cells from UV-B induced cell death | prevent tyrosine phosphorylation (Y248) based homodimerization of RACK1A proteins | –
2 | Cc1ccc2[nH]cc(C(O)C(F)(F)F)c2c1 (stereo not shown) [SD-34] | – | prevent tyrosine phosphorylation (Y248) based homodimerization of RACK1A proteins | –
3 | COc1ccc(-c2nnc(SCC(=O)O)n2N)cc1 [SD-29-12] | effective to prevent UV-B induced cell death | – | UV-B induced cell death in Y248F mutant yeast (YY) [3]: failed to provide protection from UV-B induced cell death; salt sensitivity when applied to a plant [4]: induces salt sensitivity; high temperature stress induced deformations in Arabidopsis plants ([5]; 42° C., vs vehicle control (DMSO)): very effective in preventing high temperature stress induced deformations; heat sensitivity when applied to a plant ([5]; in vivo): does not induce heat sensitivity
4 | Nn1c(SCc2ccc(F)cc2)nnc1-c1ccc(Cl)cc1 [SD-29-7] | did not protect the cells | – | –
5 | Cc1cc(Cl)ccc1NC(=O)CSc1nnc(-c2cccc(Cl)c2)n1N [SD-29-9] | effective to protect yeast cells from UV-B induced cell death | prevent tyrosine phosphorylation (Y248) based homodimerization of RACK1A proteins | Arabidopsis RACK1A tyrosine phosphorylation at increased temperature [6]: effective to prevent Arabidopsis RACK1A tyrosine phosphorylation at increased temperature
6 | COc1ccc2[nH]cc(CC(N)C(=O)O)c2c1 (stereo not shown) [SD-125] | – | prevent tyrosine phosphorylation (Y248) based homodimerization of RACK1A proteins | –
